Source: patent publication US4243679A, “S-(3-Methyl-2-butenyl)cysteine” (priority 1978, dated 1981)
Like-named read-outs stand apart in the source and are kept apart here.

Key:
[1] = tested on: tracheobronchial secretion; assay: Secretogogial activity, bronchial elimination of sodium fluoresceine, two animal species (overall statement); assay type: in vivo, Mouse; Rat; conditions: oral and parenteral
Experimental: (§1) The capacity of increasing tracheobronchial secretion was determined by the technique of bronchial elimination of sodium fluoresceine (Mawatari, Kagoshima Daigak Igaku Zasshi, 27, 561 (1976)) on two animal species and by two different administration routes: oral and parenteral.

[2] = tested on: tracheobronchial secretion; assay: Secretogogue activity, Mawatari's technique (bronchial elimination of sodium fluoresceine), mouse; assay type: in vivo
Experimental: as §1
(§2) Secretogogue activity - Mawatari's technique
(§3) Three dose levels n = 15-40 = number of test animals
(§4) Male animals were used -

respiratory mucus = assay: Modification of respiratory mucus composition, Giraldez-Gras method; assay type: in vivo, rabbit
Experimental: By means of an original technique (Giraldez and Gras), XXVI Congr. IUPS, Abstr. 777, Paris 1977)) which allows the collection of abundant samples of mucus on conscious animals and on consecutive days, the amount of eliminated mucus, its biochemical composition and its physico-chemical constants were studied. In addition to the two standards used before, N-acetylcysteine was also administered by topic route. |Modification of mucus composition. Giraldez-Gras Method, in rabbit |Oral route n = 12-30 = number of test animals

mucus = assay: Expectorant activity, Perry-Boyd technique; assay type: in vivo; conditions: rabbit; for % increase with regard to controls: fluid collected
Excerpt: Determination of the expectorant activity was achieved by the technique of collecting mucus of anaesthetized rabbits breathing in conditioned air at body humidity and temperature (Perry and Boyd, J. Pharmacol. Exp. Ther., 23 65(194l)), and measuring the percentage increase of fluid collected in relation to controls.
Expectorant activity. Perry-Boyd technique, in
rabbit. Oral route, n = 12 = number of test

[3] = tested on: tracheobronchial secretion; assay: Secretogogue activity, Mawatari's technique (bronchial elimination of sodium fluoresceine), rat; assay type: in vivo
Experimental: as §1, §2, §3, §4

[4] = oral; cited from earlier work
Acute toxicity, mouse = conditions: in vivo
Excerpt: (§5) The weight of the animals was of 180±20 g for rats and >25 g for mice.

Acute toxicity, rat = conditions: in vivo
Excerpt: as §5

[5] = Acute toxicity, two species (overall statement); assay type: in vivo, Rat; Mouse; conditions: oral and intraperitoneal
Excerpt: as §5

[6] = Subacute toxicity in rat (one month); assay type: in vivo; conditions: 100, 300 and 1000 mg/kg/day
Experimental: In order to study the toxicity of ITA 275 in the rat, this compound was given at doses of 100, 300 and 1000 mg/kg/day during one month, to 100 rats (.male./.female.=50/50)

ciliary epithelium = assay: Effect on the ciliary movement: mucus transport time in isolated dog trachea
Excerpt: This vehicle was also used as the blank.
Mucus transport time, in isolated dog trachea

[7] = Subchronic toxicity in rat (six months); assay type: in vivo; conditions: 100, 300 and 1000 mg/kg/day
Excerpt: ITA 275 was given during six months to rats at the same doses as in the preceding test. The number of animals used was of 100 (.male./.female.=50/50).

[8] = ip, confidence limits printed on next line
[9] = ip, confidence limits on next printed line
[10] = rabbit, oral, 500 mg/kg, ***p < 0,005
[11] = rabbit, 0,1 ml/kg sol. 20% (topic)

Row | Structure (SMILES) | Secretogogial activity (in words) [1] | Max. efficiency % secretion increase ([2]; i.p.) | ED25 ([2]; ip, read-out: ED25) [mg/kg] | ED25 ([2]; p.o.) | Max. efficiency % secretion increase ([2]; p.o.) | Max. efficiency % secretion increase ([3]; p.o.) | LD50 (Acute toxicity, mouse; [8]) [mg/kg] | LD50 (Acute toxicity, mouse; po) [mg/kg] | LD50 (Acute toxicity, rat; [9]) [mg/kg] | LD50 (Acute toxicity, rat; po) [mg/kg] | % Increase SH Groups (respiratory mucus; rabbit, oral, 500 mg/kg) | % Increase mucus weight (respiratory mucus; rabbit, oral, 500 mg/kg) | % Increase Muco-proteins (respiratory mucus; [10]) | % increase with regard to controls (mucus; 500 mg/kg p.o.) | ED50 ([3]; po, read-out: ED50) [mg/kg] | further results
1 | CN(Cc1cc(Br)cc(Br)c1N)C1CCCCC1 [Bisolvon, Bromhexine] | below statistical significance and did not follow a constant dose-effect sequence | 26,0% | 32 | no corre- | 34,7% | 14,8% | – | – | – | – | – | – | – | – | – | % Increase Muco-proteins (respiratory mucus; rabbit, oral, 40 mg/kg): 4,9 ± 8,9%; % Increase SH Groups (respiratory mucus; rabbit, oral, 40 mg/kg): 0,3 ± 13,4%; % Increase mucus weight (respiratory mucus; rabbit, oral, 40 mg/kg): -6,1 ± 8,3%; % Increase total proteins (respiratory mucus; rabbit, oral, 40 mg/kg): 3,1 ± 14,4%; % increase with regard to controls (mucus; 20 mg/kg p.o.): 20,6%; % increase with regard to controls (mucus; 40 mg/kg p.o.): 38,1%; ED50 ([3]; p.o.): no corre-; absorption when orally administered (in words) [4]: well adsorbed when orally administered; side effects (in words) [4]: practically no side effects
2 | CC(C)=CCSC[C@H](N)C(=O)O [ITA 275, S-(3-methyl-2-butenyl)-cysteine] | showed activity | 42,7% | 218 | – | 20,7% | 57,0% | 2090 | > 4000 | 3100 | > 4000 | 29,2 ± 14,4% | 466,1 ± 343,5% | 32,7 ± 14,3% | 135,6% | 447 | ED25 ([2]; po, read-out: ED25): 611 mg/kg; content of total proteins (in words) (respiratory mucus; rabbit): increase in the content of total proteins; mucolytic property demonstrated by the release of -SH groups (in words) (respiratory mucus; rabbit): does not present the mucolytic property of N-acetylcysteine; mucus elimination (in words) (respiratory mucus; rabbit): great increase in mucus elimination; acute toxicity (in words) [5]: very low acute toxicity both by oral and intraperitoneal routes; acute toxicity compared with S-carboxymethylcysteine (in words) [5]: even smaller than that of S-carboxymethylcysteine; general behaviour [6]: No abnormalities; hematological values [6]: remained normal; liver weight [6]: slight increase in liver weight; weight increase, food and water intake [6]: did not modify either the weight increase or the food and water intake; weight of all other organs [6]: did not undergo weight changes; Expectorant activity compared with S-carboxymethylcysteine (in words) (mucus; oral route): somewhat more active than S-carboxymethylcysteine; % increase of ciliary transport time (ciliary epithelium; 10 mM, 0 min, p<0,001): 162,3 ± 13,4%; % increase of ciliary transport time (ciliary epithelium; 10 mM, 10 min, p<0,01): 107,3 ± 21,8%; % increase of ciliary transport time (ciliary epithelium; 10 mM, 20 min): 16,2 ± 7,6%; duration of the increase in transport time (ciliary epithelium; isolated dog trachea): at least 20 min.; tolerability [7]: well tolerated
3 | CC(=O)N[C@@H](CS)C(=O)O [N-acetylcysteine] | – | – | – | – | – | – | – | – | – | – | – | – | – | – | – | % Increase mucus weight (respiratory mucus; [11]): 150,9 ± 30,8%; % Increase total proteins (respiratory mucus; [11]): 491,4 ± 311,1%; % Increase Muco-proteins (respiratory mucus; rabbit, 0,1 ml/kg sol. 20% (topic), **p < 0,01): 2450,3 ± 480,5%; % Increase SH Groups (respiratory mucus; rabbit, 0,1 ml/kg sol. 20% (topic), *p < 0,1): 305,5 ± 102,9%
4 | N[C@@H](CSCC(=O)O)C(=O)O [S-Carboxymethylcysteine, S-carboxymethylcysteine] | below statistical significance and did not follow a constant dose-effect sequence | 22,3% | 764 | no corre- | 6,3% | 39,3% | 1780 | > 4000 | 2480 | > 4000 | 11,6 ± 34,2% | 16,4 ± 44,9% | 131,9 ± 91,8% | 110,9% | 1070 | % Increase total proteins (respiratory mucus; rabbit, oral, 500 mg/kg): 31,7 ± 27,4%
5 | COc1cc2c3cc1Oc1cc(ccc1O)C[C@@H]1c4c(cc(OC)c(O)c4Oc4ccc(cc4)C[C@@H]3N(C)CC2)CC[N+]1(C)C [d-turbocurarine] | – | – | – | – | – | – | – | – | – | – | – | – | – | – | – | % increase of ciliary transport time (ciliary epithelium; 10^-4 g/ml, 0 min): 69,8 ± 12,3%; % increase of ciliary transport time (ciliary epithelium; 10^-4 g/ml, 10 min): 32,3 ± 14,5%
